The values that follow come from patent US8389521B2, “Inhibitors of protein kinases” (Ingenium Pharmaceuticals GmbH, priority 2007, dated 2013).

The term melting point denotes the temperature of the solid-liquid transition.

For data set [1], the system named is Tau phosphorylation at Serin396 in differentiated SH-SY5Y cells. The data set is described as follows: In vitro SH-SY5Y assay using tau phosphorylation. It is filed as cell-based, human. To be noted: RA- and BDNF-differentiated SH-SY5Y cells, 90-120 min incubation, Western Blot or ELISA. The method, then: The human neuroblastoma cell line SH-SY5Y can be utilized as an in vitro model to investigate CDK5 function and the efficacy of CDK5 specific inhibitors. SH-SY5Y cells express tau protein which harbors various phosphorylation sites known to be phosphorylated by several kinases including CDK5. SH-SY5Y cells can be differentiated into neuron-like cells by exposure to 10 μM all trans-retinoic acid for 3 days and subsequent exposure to 50 ng/ml human recombinant brain-derived neurotrophic factor for 3-5 days, thereby upregulating neuronal markers, including tau protein. In addition CDK5 and p35 protein levels were increased during differentiation. RA-BDNF-differentiated cells can therefore serve as a suitable model for studying tau phosphorylation and to screen potential CDK5 inhibitors (Jämsä et al., 2004. BBRC 319; 993-1000). […]
Concentrations of total tau, pS396 tau and pT231 tau within the cell culture lysates are measured by using commercial ELISA Kits (BioSource: human total tau: KHB0042; human pS396 tau: KHB7031; human pT231 tau: KHB7051) according to the manufacturers instructions or by using Western Blots probing with total and phospho-specific antibodies (antibodies: total tau: Santa Cruz, sc-21796; pS396 tau: Santa Cruz, sc-12414; pT231 tau, AT180: Pierce Endogen, MN1040; pS202 tau: AT8: Pierce Endogen, MN1020). […]
For orientation: In western blotting, separated proteins are transferred to a membrane and probed.

In turn, `CCOc1ccccc1-c1cc(Nc2ccc(CS(N)(=O)=O)cc2)ncn1` [Compound 6, {4-[6-(2-Ethoxy-phenyl)-pyrimidin-4-ylamino]-phenyl}-methanesulfonamide] had a melting point of 213.5 to 215.1 °C.

Regarding `NS(=O)(=O)Cc1ccc(Nc2cc(-c3ccccc3OCc3ccccc3)ncn2)cc1` [Compound 8, {4-[6-(2-Benzyloxy-phenyl)-pyrimidin-4-ylamino]-phenyl}-methanesulfonamide], the “inhibitory effect on Tau phosphorylation at Serin396” value in data set [1] is reported as “significant inhibitory effect”.

Molecule `COCCCNS(=O)(=O)Cc1cccc(Nc2cc(-c3ccccc3OC)ncn2)c1` [Reference Compound 3, C-{3-[6-(2-methoxy-phenyl)-pyrimidin-4-ylamino]-phenyl}-N-(3-methoxy-propyl)-methanesulfonamide] registered a melting point of 149.2 to 150.8 °C.
